# Source: patent publication US9492471B2, “Methods of treating a disease or disorder associated with Bruton'S Tyrosine Kinase” (Celgene Avilomics Research, Inc., priority 2013, dated 2016)
# Like-named read-outs stand apart in the source and are kept apart here.
# How the values were obtained:
# Experiment in all cases: HotSpot kinase profiling
# Format in all cases: biochemical
# [1] = target: T1, ARK5/NUAK1 (Homo sapiens, UniProt O60285)
# T1 construct: purchased Reaction Biology Corp
# T1 sequence (O60285 1-661): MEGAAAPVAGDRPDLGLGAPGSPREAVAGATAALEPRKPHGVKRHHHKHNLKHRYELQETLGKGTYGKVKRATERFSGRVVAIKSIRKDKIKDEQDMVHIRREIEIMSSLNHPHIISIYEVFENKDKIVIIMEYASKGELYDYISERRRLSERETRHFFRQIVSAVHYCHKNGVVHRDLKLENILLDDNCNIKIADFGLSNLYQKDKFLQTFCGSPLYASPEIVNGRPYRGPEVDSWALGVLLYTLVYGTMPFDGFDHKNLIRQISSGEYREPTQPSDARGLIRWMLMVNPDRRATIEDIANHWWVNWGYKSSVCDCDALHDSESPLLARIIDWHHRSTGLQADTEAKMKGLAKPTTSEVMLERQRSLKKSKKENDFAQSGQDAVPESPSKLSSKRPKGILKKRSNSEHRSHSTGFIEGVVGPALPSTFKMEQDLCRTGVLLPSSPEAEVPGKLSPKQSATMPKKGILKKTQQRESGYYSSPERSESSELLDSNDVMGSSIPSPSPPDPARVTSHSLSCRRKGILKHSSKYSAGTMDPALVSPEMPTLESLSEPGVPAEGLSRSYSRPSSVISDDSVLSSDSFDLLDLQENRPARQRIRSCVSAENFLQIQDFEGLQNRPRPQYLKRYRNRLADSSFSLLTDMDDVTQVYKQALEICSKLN
# Procedure, shortened: (§1)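 Radio-isotope P81 filtration format. Substrate + required cofactors in reaction buffer, kinase added, 2 h RT. Stop, wash with 0.1% phosphoric acid, detect. % inhibition vs DMSO; mean of duplicates where repeated.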
# [2] = target: T2, LIMK1 (Homo sapiens, UniProt P53667)
# T2 construct: purchased Reaction Biology Corp
# Procedure, shortened: as §1
# [3] = target: T3, PKG1b (Homo sapiens, UniProt Q13976)
# T3 construct: purchased Reaction Biology Corp
# T3 sequence (Q13976 1-686 isoform Q13976-2): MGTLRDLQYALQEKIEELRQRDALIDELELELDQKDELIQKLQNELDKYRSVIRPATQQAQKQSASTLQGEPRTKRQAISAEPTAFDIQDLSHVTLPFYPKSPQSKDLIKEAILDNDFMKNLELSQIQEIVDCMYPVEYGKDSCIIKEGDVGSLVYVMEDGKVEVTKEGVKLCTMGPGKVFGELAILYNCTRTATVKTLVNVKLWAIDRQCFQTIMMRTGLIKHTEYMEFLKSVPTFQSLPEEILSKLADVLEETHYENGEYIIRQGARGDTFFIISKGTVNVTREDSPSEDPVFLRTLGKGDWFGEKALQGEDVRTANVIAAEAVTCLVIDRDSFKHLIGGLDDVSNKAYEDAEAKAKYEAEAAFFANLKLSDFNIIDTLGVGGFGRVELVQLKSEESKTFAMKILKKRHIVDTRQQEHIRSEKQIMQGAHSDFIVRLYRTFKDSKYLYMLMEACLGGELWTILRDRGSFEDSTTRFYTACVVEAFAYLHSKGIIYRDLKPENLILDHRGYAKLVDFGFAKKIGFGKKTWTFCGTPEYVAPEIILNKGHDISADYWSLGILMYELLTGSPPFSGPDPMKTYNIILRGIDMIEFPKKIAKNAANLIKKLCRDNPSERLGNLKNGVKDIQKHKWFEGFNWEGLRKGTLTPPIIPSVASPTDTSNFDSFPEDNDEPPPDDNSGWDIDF
# Procedure, shortened: as §1
# [4] = target: T4, TBK1 (Homo sapiens, UniProt Q9UHD2)
# T4 construct: purchased Reaction Biology Corp
# T4 sequence (Q9UHD2 1-729): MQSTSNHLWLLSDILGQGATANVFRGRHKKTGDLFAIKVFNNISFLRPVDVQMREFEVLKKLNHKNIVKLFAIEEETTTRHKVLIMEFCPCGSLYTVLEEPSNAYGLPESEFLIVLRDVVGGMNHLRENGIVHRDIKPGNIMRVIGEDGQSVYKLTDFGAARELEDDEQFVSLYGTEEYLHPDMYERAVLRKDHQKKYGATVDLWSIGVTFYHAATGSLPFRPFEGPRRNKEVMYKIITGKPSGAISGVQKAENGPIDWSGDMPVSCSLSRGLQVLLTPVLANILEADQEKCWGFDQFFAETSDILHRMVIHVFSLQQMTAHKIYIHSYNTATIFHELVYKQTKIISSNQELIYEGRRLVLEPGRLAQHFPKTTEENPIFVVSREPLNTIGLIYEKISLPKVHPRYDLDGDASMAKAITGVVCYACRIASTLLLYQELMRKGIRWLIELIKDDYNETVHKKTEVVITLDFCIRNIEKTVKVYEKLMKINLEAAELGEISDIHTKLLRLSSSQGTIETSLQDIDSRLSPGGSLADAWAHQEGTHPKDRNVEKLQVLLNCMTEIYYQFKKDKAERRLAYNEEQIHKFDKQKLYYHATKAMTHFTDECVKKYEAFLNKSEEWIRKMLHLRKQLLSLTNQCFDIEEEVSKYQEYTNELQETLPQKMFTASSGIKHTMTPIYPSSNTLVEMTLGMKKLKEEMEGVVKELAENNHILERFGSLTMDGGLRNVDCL
# Procedure, shortened: as §1
# [5] = target: T5, MRCKb/CDC42BPB (Homo sapiens, UniProt Q9Y5S2)
# T5 construct: purchased Reaction Biology Corp
# Procedure, shortened: as §1
# [6] = target: T6, NEK7 (Homo sapiens, UniProt Q8TDX7)
# T6 construct: purchased Reaction Biology Corp
# Procedure, shortened: as §1
# [7] = read-out: % Enzyme Activity (relative to DMSO controls) Run 1
# [8] = read-out: % Enzyme Activity (relative to DMSO controls) Run 2
# T5 sequence (Q9Y5S2 whole entry): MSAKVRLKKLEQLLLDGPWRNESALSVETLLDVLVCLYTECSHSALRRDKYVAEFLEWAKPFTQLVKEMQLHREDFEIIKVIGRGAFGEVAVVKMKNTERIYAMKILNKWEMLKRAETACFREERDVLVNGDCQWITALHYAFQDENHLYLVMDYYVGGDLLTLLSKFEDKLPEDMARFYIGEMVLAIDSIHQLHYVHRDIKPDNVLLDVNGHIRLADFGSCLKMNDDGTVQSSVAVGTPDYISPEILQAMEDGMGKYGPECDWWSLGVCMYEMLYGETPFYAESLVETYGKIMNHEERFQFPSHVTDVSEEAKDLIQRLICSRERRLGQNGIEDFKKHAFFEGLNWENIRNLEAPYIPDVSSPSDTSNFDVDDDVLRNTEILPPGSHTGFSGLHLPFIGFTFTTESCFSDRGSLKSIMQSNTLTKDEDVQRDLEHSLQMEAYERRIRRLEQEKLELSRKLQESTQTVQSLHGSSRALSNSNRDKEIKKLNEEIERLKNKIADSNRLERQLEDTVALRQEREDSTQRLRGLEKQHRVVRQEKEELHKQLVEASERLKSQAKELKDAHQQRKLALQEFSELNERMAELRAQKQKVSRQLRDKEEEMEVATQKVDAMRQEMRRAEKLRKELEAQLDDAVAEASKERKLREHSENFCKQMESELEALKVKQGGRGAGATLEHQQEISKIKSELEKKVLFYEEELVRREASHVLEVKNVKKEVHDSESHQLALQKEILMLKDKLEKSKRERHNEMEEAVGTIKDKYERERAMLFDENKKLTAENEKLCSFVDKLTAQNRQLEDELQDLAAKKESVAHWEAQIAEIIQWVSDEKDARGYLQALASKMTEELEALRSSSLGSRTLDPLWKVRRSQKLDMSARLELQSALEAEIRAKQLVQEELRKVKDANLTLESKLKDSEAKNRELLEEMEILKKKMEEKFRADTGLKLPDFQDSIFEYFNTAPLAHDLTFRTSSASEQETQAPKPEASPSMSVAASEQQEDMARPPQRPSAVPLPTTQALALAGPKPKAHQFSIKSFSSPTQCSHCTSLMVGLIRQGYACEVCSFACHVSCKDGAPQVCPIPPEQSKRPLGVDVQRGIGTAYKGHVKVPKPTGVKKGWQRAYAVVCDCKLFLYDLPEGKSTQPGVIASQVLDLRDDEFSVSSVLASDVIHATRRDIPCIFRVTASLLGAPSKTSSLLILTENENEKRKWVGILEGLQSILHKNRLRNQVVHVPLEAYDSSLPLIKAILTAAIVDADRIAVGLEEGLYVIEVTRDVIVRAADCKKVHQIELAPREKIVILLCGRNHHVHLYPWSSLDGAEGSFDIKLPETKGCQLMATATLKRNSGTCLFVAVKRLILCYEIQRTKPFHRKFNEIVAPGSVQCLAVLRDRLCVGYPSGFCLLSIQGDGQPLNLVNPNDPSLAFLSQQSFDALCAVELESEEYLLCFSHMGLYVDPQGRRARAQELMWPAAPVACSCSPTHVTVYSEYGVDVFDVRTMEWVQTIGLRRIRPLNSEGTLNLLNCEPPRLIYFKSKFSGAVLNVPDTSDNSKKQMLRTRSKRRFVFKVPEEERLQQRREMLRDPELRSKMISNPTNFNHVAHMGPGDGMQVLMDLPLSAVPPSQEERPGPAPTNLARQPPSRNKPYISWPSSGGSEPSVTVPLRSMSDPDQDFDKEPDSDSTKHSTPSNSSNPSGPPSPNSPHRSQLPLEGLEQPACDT
# T6 sequence (Q8TDX7 whole entry): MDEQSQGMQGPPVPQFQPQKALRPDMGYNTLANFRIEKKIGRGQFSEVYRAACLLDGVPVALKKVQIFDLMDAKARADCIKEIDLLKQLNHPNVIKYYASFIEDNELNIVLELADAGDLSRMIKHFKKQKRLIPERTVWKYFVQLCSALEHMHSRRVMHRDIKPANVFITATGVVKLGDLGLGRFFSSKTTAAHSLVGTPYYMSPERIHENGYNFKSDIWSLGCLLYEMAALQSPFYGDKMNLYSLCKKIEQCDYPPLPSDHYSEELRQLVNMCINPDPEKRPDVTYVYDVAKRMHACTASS
# T2 sequence (P53667 whole entry): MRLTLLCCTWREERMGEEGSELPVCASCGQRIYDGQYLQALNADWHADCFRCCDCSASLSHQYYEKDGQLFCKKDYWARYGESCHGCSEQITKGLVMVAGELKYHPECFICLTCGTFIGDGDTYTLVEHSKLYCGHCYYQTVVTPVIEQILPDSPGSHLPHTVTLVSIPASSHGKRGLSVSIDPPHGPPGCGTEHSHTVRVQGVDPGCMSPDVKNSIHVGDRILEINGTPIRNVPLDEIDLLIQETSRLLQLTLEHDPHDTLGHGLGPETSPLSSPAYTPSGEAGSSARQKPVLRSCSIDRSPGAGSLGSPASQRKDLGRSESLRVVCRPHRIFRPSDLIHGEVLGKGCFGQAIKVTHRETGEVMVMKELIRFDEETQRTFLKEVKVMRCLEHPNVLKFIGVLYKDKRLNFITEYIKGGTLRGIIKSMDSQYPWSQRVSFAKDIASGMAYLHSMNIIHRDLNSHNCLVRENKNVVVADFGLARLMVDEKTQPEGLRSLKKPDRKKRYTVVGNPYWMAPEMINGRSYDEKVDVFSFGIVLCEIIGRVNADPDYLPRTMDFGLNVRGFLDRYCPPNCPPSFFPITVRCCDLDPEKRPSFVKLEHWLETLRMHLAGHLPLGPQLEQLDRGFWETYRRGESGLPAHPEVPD
smiles,measurement,setting,value
C=CC(=O)Nc1cccc(Nc2nc(Nc3ccc(OCCOC)c(F)c3)ncc2F)c1 [Compound 2],inhibition at 3 µM,[1],86.7%
same,remaining activity at 3 µM,[1]; [7],13.3%
same,remaining activity at 3 µM,[1]; [8],13.3%
same,inhibition at 3 µM,[2],38.8%
same,remaining activity at 3 µM,[2]; [7],61%
same,remaining activity at 3 µM,[2]; [8],61.4%
same,inhibition at 3 µM,[3],13.8%
same,remaining activity at 3 µM,[3]; [7],85.4%
same,remaining activity at 3 µM,[3]; [8],87.1%
same,inhibition at 3 µM,[4],41.3%
same,remaining activity at 3 µM,[4]; [7],58.1%
same,remaining activity at 3 µM,[4]; [8],59.2%
same,inhibition at 3 µM,[5],-6.12%
same,remaining activity at 3 µM,[5]; [7],107%
same,remaining activity at 3 µM,[5]; [8],105%
same,inhibition at 3 µM,[6],0.68%
same,remaining activity at 3 µM,[6]; [7],98.3%
same,remaining activity at 3 µM,[6]; [8],100%
